Measurements reported in US7071202B2 (SuperGen, Inc., priority 2002, dated 2006).

What was measured:
[1] = tested on: human tumor xenografts; conditions: cited from earlier work
[2] = Moisture sorption/desorption (VTI SGA-100 moisture balance); assay type: physicochemical; conditions: for hygroscopicity: from moisture sorption data, 5 to 95% RH; for Weight % chg: start, elapsed time 0.0 min, 25 deg C (RH 14.41% Form A, 9.87% Form B)
Text: The samples were not dried prior to analysis.

[3] = Grinding of Form A, XRPD; assay type: physicochemical; conditions: ground in an amalgamator for 10 minutes
Text: The XRPD data for the increased amorphous content material obtained by grinding a crystalline polymorph are plotted in FIG. 29. […] Further grinding is expected to increase the amorphous content and further broaden the XRPD pattern with the limit of the XRPD pattern being so broadened that it cannot be discerned above noise. When the XRPD pattern is broadened to the limit of being indiscernable, the material is no longer a crystalline material having increased amorphous content relative to unground crystallized material, but is a material that is wholly amorphous as defined herein.
The sample was then analyzed using XRPD.

[4] = XRPD after storage in a closed vial at ambient conditions; assay type: physicochemical; conditions: 31 days
[5] = Dehydration/desolvation under vacuum, XRPD; assay type: physicochemical
Text: The characterization of this weight loss as THF solvent is supported by the ^1H NMR data.

[6] = cited from earlier work

For `CC[C@@]1(O)C(=O)OCc2c1cc1n(c2=O)Cc2cc3c([N+](=O)[O-])cccc3nc2-1` [9-nitrocamptothecin, 9-nitro-20(S)-camptothecin], the “growth of human tumor xenografts” value ([1]; immunodeficient nude mice) is listed as “inhibited the growth of human tumor xenografts” and the “regression of established human tumor xenografts” value ([1]; nude mice) is listed as “induced regression of human tumors”.

In the case of `CC[C@@]1(O)C(=O)OCc2c1cc1n(c2=O)Cc2cc3c([N+](=O)[O-])cccc3nc2-1` [Form A, 9-nitrocamptothecin], the “hysteresis between the hydration and dehydration curves” value [2] is reported as “A small amount of hysteresis”, the hygroscopicity [2] is reported as “not hygroscopic” and the Weight % chg [2] is reported as 0.0000%. For the same molecule, the “effect of grinding on crystallinity (XRPD)” value [3] was “losing crystallinity after grinding”.

In the case of `CC[C@@]1(O)C(=O)OCc2c1cc1n(c2=O)Cc2cc3c([N+](=O)[O-])cccc3nc2-1` [Form B, 9-nitrocamptothecin], the “hysteresis between the hydration and dehydration curves” value [2] is reported as “essentially no hysterisis”, the hygroscopicity [2] is reported as “relatively hygroscopic” and the Weight % chg [2] is reported as 0.0000%. The “stability of the crystalline form (XRPD pattern vs FIG. 5)” value [4] was “relatively stable”.

In the case of `CC[C@@]1(O)C(=O)OCc2c1cc1n(c2=O)Cc2cc3c([N+](=O)[O-])cccc3nc2-1` [Form C, 9-nitrocamptothecin], the “form after attempt to desolvate under vacuum” value [5] is reported as “becomes amorphous”.

In the case of `CC[C@@](O)(C(=O)[O-])c1cc2n(c(=O)c1CO)Cc1cc3ccccc3nc1-2.[Na+]` [Sodium camptothecin], the “side effects in clinical trials” value ([6]; administered intravenously) is given as “unpredictable side effects such as myelosuppression and hemorrhagic cystitis” and the “activity in clinical trials” value ([6]; solubilized by sodium hydroxide in water, intravenous) is given as “found to have antineoplastic activity”.
